Eleven molecules from patent publication US20050165218A1, “Crystal structure of the ligand binding domain of the retinoic acid-related orphan receptor alpha (ror-alpha)” (priority 2002, published 2005) can be followed below.

Counter-ions that a name gives are not always drawn.

In data set [1] the target is T1, RORα (Homo sapiens, UniProt P35398).
T1 sequence (P35398 1-556 isoform P35398-1): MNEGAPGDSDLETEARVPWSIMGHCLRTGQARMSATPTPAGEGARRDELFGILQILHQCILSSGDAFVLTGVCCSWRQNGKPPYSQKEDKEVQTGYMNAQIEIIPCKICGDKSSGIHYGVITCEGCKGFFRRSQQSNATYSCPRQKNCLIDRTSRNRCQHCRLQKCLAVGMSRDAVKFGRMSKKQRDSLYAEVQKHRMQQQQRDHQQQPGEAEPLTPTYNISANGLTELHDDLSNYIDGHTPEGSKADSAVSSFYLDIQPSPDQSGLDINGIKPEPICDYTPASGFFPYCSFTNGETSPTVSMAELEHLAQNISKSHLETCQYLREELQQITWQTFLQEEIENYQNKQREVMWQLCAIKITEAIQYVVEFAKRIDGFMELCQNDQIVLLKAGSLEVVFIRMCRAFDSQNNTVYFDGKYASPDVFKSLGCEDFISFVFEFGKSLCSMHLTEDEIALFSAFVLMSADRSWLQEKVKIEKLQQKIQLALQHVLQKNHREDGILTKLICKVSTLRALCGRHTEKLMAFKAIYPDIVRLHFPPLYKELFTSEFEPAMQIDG
The experiment in a line: RORE reporter transcription in cells partially depleted of cholesterol (HPCD plus lovastatin, LDL-free serum). The note with it: for Transcription of the RORE reporter in response to compound (in words): HPCD and lovastatin treated cells, compared to vehicle; for fold induction at 10 µM: read-out: Fold induction (ROR alpha transcriptional activity). From the text:
We next establish whether in eukaryotic cells partially depleted of cholesterol, RORα transcriptional activity can be reconstituted by addition of cholesterol. We therefore treat the cells with hydroxypropyl-β-cyclodextrin (HPCD), a cyclodextrin derivative known to function as a cholesterol shuttle. HPCD treatment is used in experiments aiming at the partial depletion of intracellular cholesterol. In order to prevent an increase of intracellular cholesterol through the activation of the mevalonate pathway, cells are also treated with lovastatin while they are fed with a medium containing LDL-free serum.

A further data set concerns the target T2, RORα-LBD (Homo sapiens, UniProt P35398).
T2 construct: (His)6RORα-LBD269-556 is produced in Sf9 cells; (His)6 (N); made in house; host or cells: Sf9 insect cells
T2 sequence (P35398 269-556 isoform P35398-1): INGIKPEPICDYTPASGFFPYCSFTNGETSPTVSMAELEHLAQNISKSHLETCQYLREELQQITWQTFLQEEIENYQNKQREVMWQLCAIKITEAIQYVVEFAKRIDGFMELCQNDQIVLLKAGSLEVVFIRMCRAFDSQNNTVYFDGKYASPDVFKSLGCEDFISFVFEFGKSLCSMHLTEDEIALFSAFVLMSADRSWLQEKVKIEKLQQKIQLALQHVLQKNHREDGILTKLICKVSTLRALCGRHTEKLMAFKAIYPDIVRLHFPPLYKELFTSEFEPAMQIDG
Briefly: Ligand exchange screening by mass spectrometry (ESI Q-Tof, non-covalent complexes). The class given is binding. The note with it: for Displacement of cholesterol bound to the ROR-LBD (mass spectrometry): 10-fold molar excess of ligand, overnight at 4° C., protein 135 μM. As to the method:
(His)6RORα-LBD269-556 is produced in Sf9 cells and purified by Ni-NTA chromatography followed by size exclusion chromatography. The protein in Tris-HCl buffer at a concentration of 135 μM is incubated overnight at 4° C., with a 10-fold molar excess of 25-hydroxycholesterol (5-cholesten-3beta, 25-diol) or cholesterol sulfate (5-cholesten-3beta-ol-sulfate). Prior to mass spectrometry analysis, the protein is subjected to fast buffer exchange in 50 mM ammonium acetate pH 7.0 by size exclusion chromatography using disposable Centri∘Spin 20 columns (Princeton Separations, Adelphia, N.J.) according to manufacturer′s instructions. Mass spectrometry is carried out using a Q-Tof (Micromass, Manchester, UK) quadrupole time-of-flight hybrid tandem mass spectrometer equipped with a Micromass Z-type electrospray ionization source (ESI). The acquisition mass range is typically m/z 1500-4500 in 5 seconds. The mass spectrometer is tuned in order to allow detection of multiply-charged species of non-covalent complexes. The source block temperature and desolvation temperature are kept at 50° C. and 80° C., respectively. Sample cone voltage (Vc) is set to 23 volts for standard measurements. In-source induced fragmentation experiments are performed by increasing Vc up to 100 volts. The protein solution is infused at a flow rate of 10 μl/min. Data are recorded and processed using Masslynx software. Spectra are deconvoluted using MaxEnt analysis software (Micromass, Manchester, UK).
Generation of the construct (His)6RORα-LBD270-523, fermentation and purification are done as described above. […] The resulting solution is incubated overnight at 37° C. and further purified by size exclusion chromatography on a SPX75 column, before concentrating to 17.6 mg/ml for crystallization trials. MS determination of the native complex is done as described previously (Kallen et al., Structure, Vol.10, 1697-1707, 2002). A control experiment is done by incubating the same amount of RORα LBD protein with 5% DMSO under identical conditions. The protein concentration is approximately 15 μM in 50 mM AcONH4, pH 7.0. Both spectra are recorded under identical conditions with Vc=20 volts.

Data set [2] concerns the target T1, RORα. Briefly: Screen of cholesterol derivatives for binding of RORα to the RORE in essentially cholesterol-free medium. The note with it: baculovirus-expressed RORα. The text has this:
The substances identified by rational design can be further analyzed in drug screening assay. The drug screening assays of the present invention may use any of a number of assays for measuring the functionality of RORα, including for the ability of RORα following ligand binding to transcriptionally regulate a gene, by increasing phosphorylation of RORα, by allowing RORα to dimerize or to heterodimerize with another nuclear receptor, by improving its ability to interact with co-activators, by changing its conformation and by increasing its ability to bind DNA. In one binding assay, a nucleic acid containing a RORα binding site is placed on a coated or onto a solid support. A preferred binding site is a response element (RORE) composed of a 6 bp AT rich motif immediately preceding a half site AGGTCA and the possible variants of this response element that are given in Giguere et al. 1994, Genes & Development 8:538-553, Mc Broom et al. 1995 Mol.Cell. Biol. 15: 796-808, Moraitis & Giguere, 1999; Molecular Endocrinology. 13:431-439. Methods for placing the nucleic acid on the solid support are well known in the art and include linking biotin to the nucleic acid and linking avidin to the solid support. The RORα is allowed to equilibrate with the nucleic acid and drugs are tested to see if they disrupt or enhance the binding. […]

Data set [3] addresses T1, RORα. The experiment in a line: RORE-tk-luc luciferase reporter assay in U2OS cells in essentially sterol free medium, fluvastatin treatment. The class given is cell-based. As to the method: Mammalian cells receive cholesterol by uptake from lipoproteins (LDL-cholesterol) and are able to synthesize cholesterol through the mevalonate pathway. In a situation where cells are cultured under conditions essentially sterol free, a key transcription factor, SREBP will be proteolytically cleaved and this releases a transcription factor to the nucleus. This transcription factor is able to transcriptionally activate HMG-CoA reductase, which is a critical step in the cholesterol biosynthesis through the mevalonate pathway. Statins, which are know drugs for hypercholesterol state are specific inhibitors of the HMG-CoA reductase. When cells are cultivated in sterol free medium, their HMG-CoA reductase is strongly activated. In this experiment cells, cultivated in medium essentially sterol free, are treated with fluvastatin. […] U2OS cells are transfected with expression vector for RORα (ROR) together with a luciferase reporter gene bearing a consensus response element for RORα (RORE-tk-luc). Luciferase activity is assayed in cells from 6 well plates and related to the activity in cells transfected with or without treatment with fluvastatin. The results are normalized to the protein content.
Background: A reporter such as luciferase makes a cellular process visible.

Setting [4] is: compounds 10 μM, cells treated with HPCD and lovastatin, LDL-free serum, control = 1.

For the molecule `CCC(CC[C@@H](C)[C@H]1CC[C@H]2[C@@H]3CC=C4C[C@@H](OC(C)=O)CC[C@]4(C)[C@H]3CC[C@]12C)C(C)C` (stereo partly drawn) [5-Cholesten-24beta, 5-Cholesten-24β-ethyl-3β-ol acetate], the “Fold induction (ROR alpha transcriptional activity)” value on RORα [1] (10 µM) is reported as 1. Also, the “Transcription of the RORE reporter in response to compound (in words)” value (from here on “Transcription of the RORE reporter”) on RORα [1] is reported as “does not trigger any increase”.
Take `CC(C)CCC[C@@H](C)[C@H]1CC[C@H]2C3=CC=C4C[C@@H](O)CC[C@]4(C)[C@H]3CC[C@]12C` [7-Dehydrochol, 7-Dehydrocholesterol]: the “Fold induction (ROR alpha transcriptional activity)” value at RORα [1] (setting [4]) was determined as 4.6.
Turning to `CC(C)CCC[C@](C)(O)[C@H]1CC[C@H]2[C@@H]3CC=C4C[C@@H](O)CC[C@]4(C)[C@H]3CC[C@@]21C` [20(S)-OH-Chol], the “Fold induction (ROR alpha transcriptional activity)” value at RORα [1] (10 µM) came to 1.2.
As to `CC(C)CC[C@@H](O)[C@@H](C)[C@H]1CC[C@H]2[C@@H]3CC=C4C[C@@H](O)CC[C@]4(C)[C@H]3CC[C@]12C` [22(R)-OH-Chol], at RORα [1] (10 µM), the “Fold induction (ROR alpha transcriptional activity)” value is recorded as 1.2.
Take `C[C@H](CCCC(C)(C)O)[C@H]1CC[C@H]2[C@@H]3CC=C4C[C@@H](O)CC[C@]4(C)[C@H]3CC[C@]12C` [25-OH-Chol, 5-cholesten-3beta, 25-diol]: at RORα-LBD, the “Displacement of cholesterol bound to the ROR-LBD (mass spectrometry)” value is “able to fully displace cholesterol”. Moreover, the fold induction at 10 µM on RORα [1] was determined as 1.6.
For `C[C@@H](CO)CCC[C@@H](C)[C@H]1CC[C@H]2[C@@H]3CC=C4C[C@@H](O)CC[C@]4(C)[C@H]3CC[C@]12C` [27-OH-Chol], the “Fold induction (ROR alpha transcriptional activity)” value at RORα [1] (10 µM) is given as 1.5.
Turning to `CC(C)CCC[C@@H](C)[C@H]1CC[C@H]2[C@@H]3CC=C4C[C@@H](OS(=O)(=O)O)CC[C@]4(C)[C@H]3CC[C@]12C` [Chol. Sulfate, 5-cholesten-3beta-ol-sulfate], on RORα-LBD (1.0 mM ligand, 73 μM (His)6RORαLBD270-523, overnight at 37° C.), the “Exchange of cholesterol by cholesterol-sulfate, MS-analysis” value is recorded as “confirmed by MS-analysis”. Also, the “Displacement of cholesterol bound to the ROR-LBD (mass spectrometry)” value at RORα-LBD (listed as cholesterol sulfate) is “able to fully displace cholesterol”; on RORα-LBD (listed as cholesterol-sulfate), “could be exchanged with cholesterol-sulfate”. Besides, the “Stability of ligand/ROR-LBD complex versus in-source collisions at various cone-voltages” value on RORα-LBD (compared with apo-ROR-LBD, Vc up to 100 volts) is “more stable”. Besides, the “Displacement of cholesterol (RORα binding to RORE screen)” value on RORα [2] was “able to displace cholesterol”. Also, on RORα [1], the fold induction at 10 µM is 5.4.
`CC(C)CCC[C@@H](C)[C@H]1CC[C@H]2[C@@H]3CC[C@H]4C[C@@H](O)CC[C@]4(C)[C@H]3CC[C@]12C` [Cholestanol]: the “Transcription of the RORE reporter” value on RORα [1] is given as “stimulated”. Besides, on RORα [1] (setting [4]), the “Fold induction (ROR alpha transcriptional activity)” value came to 2.4.
With `CC(C)CCC[C@@H](C)[C@H]1CC[C@H]2[C@@H]3CC=C4C[C@@H](O)CC[C@]4(C)[C@H]3CC[C@]12C` [Cholesterol, cholest-5-en-3beta-ol], on RORα [1], the “Transcription of the RORE reporter” value is on record as “stimulated” and the fold induction at 10 µM is 3.3.
`CC(C)CCC[C@@H](C)[C@H]1CC[C@H]2[C@@H]3CC=C4C[C@H](O)CC[C@]4(C)[C@H]3CC[C@]12C` [Epicholesterol, 5-Cholesten-3α-ol]: on RORα [1], the “Transcription of the RORE reporter” value is given as “stimulated” and the fold induction at 10 µM came out at 2.8.
Regarding `CC(C)n1c(/C=C/C(O)CC(O)CC(=O)O)c(-c2ccc(F)cc2)c2ccccc21` (stereo not shown) [Fluvastatin], on RORα [3] (fluvastatin +5 μM, paired control 76, read-out: Fold induction (RORα transcriptional activity, luciferase)), the fold induction at 5 µM is 48. For the same molecule, the fold induction at 10 µM at RORα [3] (fluvastatin +10 μM, paired control 93, read-out: Fold induction (RORα transcriptional activity, luciferase)) was found to be 38.
